From ChEMBL document CHEMBL5647688, “Mitogen-activated protein kinase (MEK/ERK) inhibition sensitizes cancer cells to centromere-associated protein E inhibition” (Int J Cancer, 2013)

Legend:
Format in all cases: functional
NCI-H23 = test: Synergistic cytotoxicity against human NCI-H23 cells assessed as combination index at ED75 measured after 72 hrs in presence of MEK inhibitor GSK1120212 by Cell-titer Glo reagent assay
CAPAN-1 = test: Synergistic cytotoxicity against human CAPAN-1 cells expressing KRAS mutant assessed as combination index at ED 50 measured after 72 hrs in presence of MEK inhibitor GSK1120212 by Cell-titer Glo reagent assay
Calu-6 = test: Synergistic cytotoxicity against human Calu-6 cells expressing KRAS mutant assessed as combination index at ED75 measured after 72 hrs in presence of MEK inhibitor GSK1120212 by Cell-titer Glo reagent assay
HCT-116 [1] = test: Synergistic cytotoxicity against human HCT-116 cells expressing KRAS mutant assessed as combination index at ED75 measured after 72 hrs in presence of MEK inhibitor GSK1120212 by Cell-titer Glo reagent assay
RKO [2] = test: Synergistic cytotoxicity against human RKO cells expressing BRAF mutant assessed as combination index at ED75 measured after 72 hrs in presence of MEK inhibitor GSK1120212 by Cell-titer Glo reagent assay
NCI-H520 = test: Synergistic cytotoxicity against human NCI-H520 cells assessed as combination index at ED75 measured after 72 hrs in presence of MEK inhibitor GSK1120212 by Cell-titer Glo reagent assay
NCI-H2170 [3] = test: Synergistic cytotoxicity against human NCI-H2170 cells assessed as combination index at ED75 measured after 72 hrs in presence of MEK inhibitor GSK1120212 by Cell-titer Glo reagent assay
SK-N-FI [4] = test: Synergistic cytotoxicity against human SK-N-FI cells assessed as combination index at ED 50 measured after 72 hrs in presence of concurrent treatment of […] inhibitor CI-1040 by Cell-titer Glo reagent assay
HCT-116 [5] = test: Synergistic cytotoxicity against human HCT-116 cells expressing KRAS mutant assessed as combination index at ED 50 measured after 72 hrs in presence of MEK inhibitor GSK1120212 by Cell-titer Glo reagent assay
HPAF-II = test: Synergistic cytotoxicity against human HPAF-II cells expressing KRAS mutant assessed as combination index at ED75 measured after 72 hrs in presence of MEK inhibitor GSK1120212 by Cell-titer Glo reagent assay
SW48 [6] = test: Synergistic cytotoxicity against human SW48 cells assessed as combination index at ED 50 measured after 72 hrs in presence of MEK inhibitor GSK1120212 by Cell-titer Glo reagent assay
RKO [7] = test: Synergistic cytotoxicity against human RKO cells expressing BRAF mutant assessed as combination index at ED 50 measured after 72 hrs in presence of MEK inhibitor GSK1120212 by Cell-titer Glo reagent assay
NCI-H2228 = test: Synergistic cytotoxicity against human NCI-H2228 cells assessed as combination index at ED 50 measured after 72 hrs in presence of MEK inhibitor GSK1120212 by Cell-titer Glo reagent assay
NB-1691 [8] = test: Synergistic cytotoxicity against human NB-1691 cells assessed as combination index at ED 50 measured after 72 hrs in presence of temozolomide by Cell-titer Glo reagent assay
SW48 [9] = test: Synergistic cytotoxicity against human SW48 cells assessed as combination index at ED75 measured after 72 hrs in presence of MEK inhibitor GSK1120212 by Cell-titer Glo reagent assay
Capan-2 = test: Synergistic cytotoxicity against human Capan-2 cells expressing KRAS mutant assessed as combination index at ED75 measured after 72 hrs in presence of MEK inhibitor GSK1120212 by Cell-titer Glo reagent assay
MIA PaCa-2 = test: Synergistic cytotoxicity against human MIA PaCa-2 cells expressing KRAS mutant assessed as combination index at ED 50 measured after 72 hrs in presence of MEK inhibitor GSK1120212 by Cell-titer Glo reagent assay
NCI-H2170 [10] = test: Synergistic cytotoxicity against human NCI-H2170 cells assessed as combination index at ED 50 measured after 72 hrs in presence of MEK inhibitor GSK1120212 by Cell-titer Glo reagent assay
NB-1691 [11] = test: Synergistic cytotoxicity against human NB-1691 cells assessed as combination index at ED 75 measured after 72 hrs in presence of temozolomide by Cell-titer Glo reagent assay
HuP-T4 = test: Synergistic cytotoxicity against human HuP-T4 cells expressing KRAS mutant assessed as combination index at ED 50 measured after 72 hrs in presence of MEK inhibitor GSK1120212 by Cell-titer Glo reagent assay
NCI-H1299 = test: Synergistic cytotoxicity against human NCI-H1299 cells expressing NRAS mutant assessed as combination index at ED75 measured after 72 hrs in presence of MEK inhibitor GSK1120212 by Cell-titer Glo reagent assay
NB-1691 [12] = test: Synergistic cytotoxicity against human NB-1691 cells assessed as combination index at ED 75 measured after 72 hrs in presence of concurrent treatment of […] inhibitor CI-1040 by Cell-titer Glo reagent assay
NCI-H358 = test: Synergistic cytotoxicity against human NCI-H358 cells expressing KRAS mutant assessed as combination index at ED 50 measured after 72 hrs in presence of MEK inhibitor GSK1120212 by Cell-titer Glo reagent assay
NCI-H1563 = test: Synergistic cytotoxicity against human NCI-H1563 cells assessed as combination index at ED 50 measured after 72 hrs in presence of MEK inhibitor GSK1120212 by Cell-titer Glo reagent assay
YAPC = test: Synergistic cytotoxicity against human […] cells expressing KRAS mutant assessed as combination index at ED75 measured after 72 hrs in presence of MEK inhibitor GSK1120212 by Cell-titer Glo reagent assay
NCI-H2030 = test: Synergistic cytotoxicity against human NCI-H2030 cells expressing KRAS mutant assessed as combination index at ED 50 measured after 72 hrs in presence of MEK inhibitor GSK1120212 by Cell-titer Glo reagent assay
SK-N-FI [13] = test: Synergistic cytotoxicity against human SK-N-FI cells assessed as combination index at ED 50 measured after 72 hrs in presence of sequential treatment of […] inhibitor CI-1040 by Cell-titer Glo reagent assay
SK-N-FI [14] = test: Synergistic cytotoxicity against human SK-N-FI cells assessed as combination index at ED 75 measured after 72 hrs in presence of sequential treatment of […] inhibitor CI-1040 by Cell-titer Glo reagent assay
SK-N-FI [15] = test: Synergistic cytotoxicity against human SK-N-FI cells assessed as combination index at ED 50 measured after 72 hrs in presence of SN-38 by Cell-titer Glo reagent assay
SK-N-FI [16] = test: Synergistic cytotoxicity against human SK-N-FI cells assessed as combination index at ED 50 measured after 72 hrs in presence of temozolomide by Cell-titer Glo reagent assay

Q: For CC(C)Oc1ccc(C(=O)N[C@H](CNC(=O)CN(C)C)Cc2ccc(-c3cn4cccc([C@H](C)O)c4n3)cc2)cc1Cl [GSK-923295A], which CI (NCI-H23) is on record?
A: 0.234

Q: What about the CI (CAPAN-1) of the same molecule?
A: 0.053

Q: What about the CI (Calu-6) of the same molecule?
A: 0.533

Q: And the CI (HCT-116 [1])?
A: 0.384

Q: What about the CI (RKO [2]) of the same molecule?
A: 0.206

Q: And the CI (NCI-H520)?
A: 0.715

Q: And the CI (NCI-H2170 [3])?
A: 0.624

Q: And the CI (SK-N-FI [4])?
A: 0.643

Q: And the CI (HCT-116 [5])?
A: 0.695

Q: And the CI (HPAF-II)?
A: 0.473

Q: And the CI (SW48 [6])?
A: 0.36

Q: And the CI (RKO [7])?
A: 0.373

Q: What about the CI (NCI-H2228) of the same molecule?
A: 0.317

Q: What about the CI (NB-1691 [8]) of the same molecule?
A: 0.405

Q: What about the CI (SW48 [9]) of the same molecule?
A: 0.091

Q: What about the CI (Capan-2) of the same molecule?
A: 0.153

Q: And the CI (MIA PaCa-2)?
A: 0.394

Q: What about the CI (NCI-H2170 [10]) of the same molecule?
A: 0.37

Q: And the CI (NB-1691 [11])?
A: 0.241

Q: And the CI (HuP-T4)?
A: 0.452

Q: What about the CI (NCI-H1299) of the same molecule?
A: 0.511

Q: What about the CI (NB-1691 [12]) of the same molecule?
A: 0.308

Q: And the CI (NCI-H358)?
A: 0.416

Q: And the CI (NCI-H1563)?
A: 0.405

Q: What about the CI (YAPC) of the same molecule?
A: 1.31

Q: And the CI (NCI-H2030)?
A: 0.308

Q: And the CI (SK-N-FI [13])?
A: 0.834

Q: And the CI (SK-N-FI [14])?
A: 0.757

Q: And the CI (SK-N-FI [15])?
A: 1.845

Q: What about the CI (SK-N-FI [16]) of the same molecule?
A: 0.837
